ChEMBL document CHEMBL3639124, “Oxadiazole inhibitors of leukotriene production” (2013)

target: T1, Arachidonate 5-lipoxygenase-activating protein (Homo sapiens, UniProt P20292); test: Binding Assay: Compounds area assessed for the ability to bind to FLAP in a binding assay that measures compound-specific displacement of an iodinated (125I) FLAP inhibitor via a scintillaion proximity assay format (adapted from S. Charleson et. al., Mol. Pharmacol., 1992,41 873-879).
T1 sequence (P20292 whole entry): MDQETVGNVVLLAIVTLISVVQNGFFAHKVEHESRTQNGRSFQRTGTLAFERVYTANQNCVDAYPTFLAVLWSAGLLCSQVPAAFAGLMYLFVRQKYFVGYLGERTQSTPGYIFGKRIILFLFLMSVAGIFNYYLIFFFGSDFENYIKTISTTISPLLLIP

SMILES | IC50 [nM]
COCCNc1cnc(-c2nc(C3(c4ccc(-c5cnc(N)nc5)nc4)CCC3)no2)cn1 | 3.2
COC(=O)[C@@H]1CN(c2ccc(-c3nc(C4(c5ccc(-c6cnc(N)nc6)nc5)CCC4)no3)cn2)CCN1 | 3.7
CN1CCN(c2cnc(-c3nc(C4(c5ccc(-c6cnc(N)nc6)nc5)CCC4)no3)cn2)CC1 | 1.8
CCNc1cnc(-c2nc(C3(c4ccc(-c5cnc(N)nc5)nc4)CCC3)no2)cn1 | 2.4
Nc1ncc(-c2ccc(C3(c4noc(-c5ccc6[nH]ncc6c5)n4)CCC3)cn2)cn1 | 4

Next, values leading:

IC50 [nM] | SMILES
100 | CCNC(=O)Cn1cc(-c2nc(C3(c4ccc(-c5cnc(N)nc5)nc4)CCC3)no2)cn1
17 | COCCn1cc(-c2nc(C3(c4ccc(-c5cnc(N)nc5)nc4)CCC3)no2)cn1
14 | CC(C)(C)NC(=O)Cn1cc(-c2nc(C3(c4ccc(-c5cnc(N)nc5)nc4)CCC3)no2)cn1
48 | N#CCn1cc(-c2nc(C3(c4ccc(-c5cnc(N)cn5)nc4)CCC3)no2)cn1
